Results reported in patent US6964760B2, “Antimicrobial polypeptide, nucleic acid, and methods of use” (University of Florida Research Foundation, priority 1997, dated 2005).

Key:
Type in all cases: cell-based
[1] = tested on: S. mutans strains; experiment: Overlay technique, panel of S. mutans strains; settings: mutacin 1140 produced by a JH1140 strain
Method: (§1) Three drops of an overnight THB culture of the indicator strain were mixed with 3 ml of molten top agar and poured evenly over the surface of the plate. After an additional 24 hours of incubation, clear zones surrounding the test strain were measured.
(§2) The inhibitory factor inhibited 124 of 125 S. mutans strains tested. […] The following table summarizes the spectrum of activity found for the lantibiotic.

[2] = tested on: other strains of S. mutans; experiment: Sterility of agar taken from clear zones; settings: loopfuls of agar taken from clear zones were sterile
[3] = tested on: Gram positive organisms; experiment: Overlay technique, Gram positive organisms; settings: including Streptococcus mitts, Streptococcus pyogenes, Staphylococcus aureus, Actinomyces species
Method: as §1, §2

[4] = tested on: Gram-negative bacteria; experiment: Overlay technique, Gram-negative bacteria
Method: as §1, §2

mutacin 1140
S. mutans strains inhibited of strains tested [1]: 124 of 125 | Kind of effect on other strains of S. mutans [2]: bacteriocidal | Sensitivity of most Gram positive organisms to inhibitory activity [3]: sensitive | Inhibition of Gram-negative bacteria [4]: mostly resistant
